Publication PMC11857663, “Geliboluols A–D: Kaurane-Type Diterpenoids from the Marine-Derived Rare Actinomycete Actinomadura geliboluensis” (Marine Drugs, 2025)

Tests used:
Assay type in all cases: cell-based
[1] = tested on: NALM6 C. G5 (B-cell acute lymphocytic leukemia, B-ALL); test: CellTiter-Glo (CTG) cytotoxicity assay, NALM6 C. G5; settings: Homo sapiens, NALM-6, 48 h, read-out: Growth inhibition 50% (GI50) NALM6 C. G5
Protocol: (§1) Compounds 1–5 were evaluated for their cytotoxicity against seven blood cancer cell lines, the most common cancer types in Korea, along with a normal cell line: HL-60 (acute myelogenous leukemia, AML), Raji (Burkitt’s lymphoma), WSU-DLCL2 (diffuse large B-cell lymphoma, DLBCL), NALM6 C. G5 (B-cell acute lymphocytic leukemia, B-ALL), K562 (chronic myelogenous leukemia, CML), RPMI-8402 (T-cell acute lymphocytic leukemia, T-ALL), U266 (multiple myeloma), and RPMI-1788 (B lymphocytes, normal cell line).
(§2) The cytotoxicity test was conducted with CTG luminescent cell viability and SRB assay according to the published procedures. Briefly, blood cancer cell lines and a normal cell line were obtained from the American Type Culture Collection (Manassas, VA, USA) (HL-60: acute myelogenous leukemia, Raji: Burkitt’s lymphoma, NALM6 C. G5: B-cell acute lymphocytic leukemia, K562: chronic myelogenous leukemia, U266: multiple myeloma, and RPMI-1788: B lymphocytes) and the DSMZ-German Collection of Microorganisms and Cell Cultures (WSU-DLCL2: diffuse large B-cell lymphoma and RPMI-8402: T-cell acute lymphocytic leukemia). The cell lines were incubated in RPMI 1640 supplemented with 10% fetal bovine serum, penicillin (100 IU/mL), and streptomycin (100 µg/mL) at 37 °C under a humidified atmosphere of 5% CO2. The cells with a passage number between 8 and 12 were used. The cell lines were prepared in an opaque-walled 96-well plate (8 × 10^3 cells/well), and the compounds (1–5 and doxorubicin as a positive control) with 0.1% DMSO were added to each well and incubated for 48 h. The cell cultures were then treated with 100 µL of CellTiter-Glo Reagent (Promega, Madison, WI, USA) and kept for 10 min to acquire a luminescence signal. Luminescence measurements were performed with the GloMax-Multi Detection System (Promega, Madison, WI, USA). The solid cancer cell lines and the normal cell line were obtained from the American Type Culture Collection (Manassas, VA, USA) (ACHN: renal, MDA-MB-231: breast, PC-3: prostate, NCI-H23: lung, HCT-15: colon, and MRC-9: lung fibroblast) and the Japanese Cancer Research Resources Bank (JCRB) (NUGC-3: stomach). The cell lines were incubated in RPMI 1640 supplemented with 10% fetal bovine serum, penicillin (100 IU/mL), and streptomycin (100 µg/mL) at 37 °C under a humidified atmosphere of 5% CO2. The cells with a passage number between 8 and 12 were used. The cells were then prepared in a 96-well plate (8 × 10^3 cells/well), and the compounds (1–5 and adriamycin as a positive control) with 0.1% DMSO were added to each well. After incubation for 48 h, the cell cultures were fixed using 50% trichloroacetic acid ([…]) and were dyed with 0.4% SRB in 1% acetic acid. Unbound dye was washed using 1% acetic acid and protein-bound dye was collected with 10 mM Tris base (pH 10.5) to measure optical density. Absorbance was measured at 540 nm with a VersaMax microplate reader (Molecular Devices, Sunnyvale, CA, USA) and GI50 values were calculated by GraphPad Prism 4.0 (GraphPad, San Diego, CA, USA).

[2] = tested on: RPMI-1788 (B lymphocytes, normal cell line); test: CellTiter-Glo (CTG) cytotoxicity assay, RPMI-1788 normal cell line; settings: 48 h, read-out: Growth inhibition 50% (GI50) RPMI-1788
Protocol: as §1, §2

[3] = tested on: RPMI-8402 (T-cell acute lymphocytic leukemia, T-ALL); test: CellTiter-Glo (CTG) cytotoxicity assay, RPMI-8402; settings: Homo sapiens; RPMI-8402, CTG assay, 48 h; read-out: Growth inhibition 50% (GI50) RPMI-8402
Protocol: as §1, §2

[4] = tested on: Raji (Burkitt's lymphoma); test: CellTiter-Glo (CTG) cytotoxicity assay, Raji; settings: Homo sapiens, 48 h, read-out: Growth inhibition 50% (GI50) Raji
Protocol: as §1, §2

PC-3 (prostate) = test: Sulforhodamine B (SRB) cytotoxicity assay, PC-3; settings: PC-3, SRB assay, 48 h; read-out: Growth inhibition 50% (GI50) PC-3
Protocol: (§3) Compounds 1–5 were further evaluated for their cytotoxicity against six solid cancer cell lines and a normal cell line: ACHN (renal), MDA-MB-231 (breast), PC-3 (prostate), NUGC-3 (stomach), NCI-H23 (lung), HCT-15 (colon), and MRC-9 (lung fibroblast, normal cell line). […] Additionally, compounds 1–5 were evaluated for their antimicrobial properties by applying the broth microdilution method, described by the Clinical and Laboratory Standards Institute, against three Gram-positive bacteria, Bacillus subtilis (KCTC 1021), Micrococcus luteus (KCTC 1915), and Staphylococcus aureus (KCTC 1927), and three Gram-negative bacteria, Escherichia coli (KCTC 2441), Salmonella enterica serovar Typhimurium (KCTC 2515), and Klebsiella pneumoniae (KCTC 2690).
as §2

NUGC-3 (stomach) = test: Sulforhodamine B (SRB) cytotoxicity assay, NUGC-3; settings: Homo sapiens; NUGC-3, SRB assay, 48 h; read-out: Growth inhibition 50% (GI50) NUGC-3
Protocol: as §3, §2

[5] = tested on: K562 (chronic myelogenous leukemia, CML); test: CellTiter-Glo (CTG) cytotoxicity assay, K562; settings: Homo sapiens, 48 h, read-out: Growth inhibition 50% (GI50) K562
Protocol: as §1, §2

HCT-15 (colon) = test: Sulforhodamine B (SRB) cytotoxicity assay, HCT-15; settings: Homo sapiens; HCT-15, SRB assay, 48 h; read-out: Growth inhibition 50% (GI50) HCT-15
Protocol: as §3, §2

NCI-H23 (lung) = test: Sulforhodamine B (SRB) cytotoxicity assay, NCI-H23; settings: Homo sapiens, 48 h, read-out: Growth inhibition 50% (GI50) NCI-H23
Protocol: as §3, §2

[6] = tested on: MRC-9 (lung fibroblast, normal cell line); test: Sulforhodamine B (SRB) cytotoxicity assay, MRC-9 normal cell line; settings: MRC9, 48 h, read-out: Growth inhibition 50% (GI50) MRC-9
Protocol: as §3, §2

U266 (multiple myeloma) = test: CellTiter-Glo (CTG) cytotoxicity assay, U266; settings: Homo sapiens, U-266, 48 h, read-out: Growth inhibition 50% (GI50) U266
Protocol: as §1, §2

MDA-MB-231 (breast) = test: Sulforhodamine B (SRB) cytotoxicity assay, MDA-MB-231; settings: Homo sapiens; MDA-MB-231, SRB assay, 48 h; read-out: Growth inhibition 50% (GI50) MDA-MB-231
Protocol: as §3, §2

[7] = tested on: WSU-DLCL2 (diffuse large B-cell lymphoma, DLBCL); test: CellTiter-Glo (CTG) cytotoxicity assay, WSU-DLCL2; settings: Homo sapiens, WSUDLCL2, 48 h, read-out: Growth inhibition 50% (GI50) WSU-DLCL2
Protocol: as §1, §2

[8] = tested on: HL-60 (acute myelogenous leukemia, AML); test: CellTiter-Glo (CTG) cytotoxicity assay, HL-60; settings: Homo sapiens; HL-60, CTG assay, 48 h; read-out: Growth inhibition 50% (GI50) HL-60
Protocol: as §1, §2

ACHN (renal) = test: Sulforhodamine B (SRB) cytotoxicity assay, ACHN; settings: Homo sapiens, 48 h, read-out: Growth inhibition 50% (GI50) ACHN
Protocol: as §3, §2

blood cancer cell lines = test: CTG cytotoxicity assay, panel of blood cancer cell lines; settings: 48 h, read-out: GI50 values against blood cancer cell lines (range over the panel)
Protocol: as §1
(§4) The cytotoxicity test was conducted with CTG luminescent cell viability and SRB assay according to the published procedures. […] The cell cultures were then treated with 100 µL of CellTiter-Glo Reagent (Promega, Madison, WI, USA) and kept for 10 min to acquire a luminescence signal. Luminescence measurements were performed with the GloMax-Multi Detection System (Promega, Madison, WI, USA). […] Absorbance was measured at 540 nm with a VersaMax microplate reader (Molecular Devices, Sunnyvale, CA, USA) and GI50 values were calculated by GraphPad Prism 4.0 (GraphPad, San Diego, CA, USA).

solid cancer cell lines = test: SRB cytotoxicity assay, panel of solid cancer cell lines; settings: six solid cancer cell lines or the normal cell line, 48 h, read-out: GI50 values against solid cancer cell lines (range over the panel)
Protocol: as §3, §4

| SMILES | GI50 [1] [µM] | GI50 [2] [µM] | GI50 [3] [µM] | GI50 [4] [µM] | GI50 (PC-3 (prostate)) [µM] | GI50 (NUGC-3 (stomach)) [µM] | GI50 [5] [µM] | GI50 (HCT-15 (colon)) [µM] | GI50 (NCI-H23 (lung)) [µM] | GI50 [6] [µM] | GI50 (U266 (multiple myeloma)) [µM] | GI50 (MDA-MB-231 (breast)) [µM] | GI50 [7] [µM] | GI50 [8] [µM] | GI50 (ACHN (renal)) [µM] | GI50 (blood cancer cell lines) [µM] | GI50 (solid cancer cell lines) [µM] |
| --- | --- | --- | --- | --- | --- | --- | --- | --- | --- | --- | --- | --- | --- | --- | --- | --- | --- |
| C=C1C[C@@]23C[C@@H]1CC[C@]2(O)[C@@]1(C)CCC[C@@](C)(CO)[C@@H]1[C@H](O)C3 [compound 3, geliboluol C] | > 30 | > 30 | > 30 | > 30 | > 30 | > 30 | > 30 | > 30 | > 30 | > 30 | > 30 | > 30 | > 30 | > 30 | > 30 | – | – |
| C=C1C[C@@]23C[C@@H]1CC[C@]2(O)[C@@]1(C)CCCC(C)(C)[C@@H]1[C@H](O)C3 [compound 5] | 7.34 | 9.56 | 11.1 | 4.58 | > 30 | > 30 | 11.9 | > 30 | > 30 | > 30 | 22.5 | > 30 | 5.93 | 16.4 | > 30 | – | – |
| C=C1C[C@@]23C[C@@H]1CC[C@]2(O)[C@@]1(C)[C@@H](O)CCC(C)(C)[C@@H]1[C@H](O)C3 [compound 2, geliboluol B] | > 30 | > 30 | > 30 | > 30 | > 30 | > 30 | > 30 | > 30 | > 30 | > 30 | > 30 | > 30 | > 30 | > 30 | > 30 | – | – |
| C=C1C2CCC3(O)C4(C)CCCC(C)(CO)C4C(O)CC3(C2)C1O (centres unmarked) [compound 4, geliboluol D] | 2.59 | 4.52 | 8.51 | 2.73 | 6.5 | 4.34 | 19.6 | 5.73 | 5.13 | 7.23 | > 30 | 5.73 | 3.48 | 11.2 | 4.58 | 2.59 to 19.6 | 4.34 to 7.23 |
| C=C1C[C@@]23C[C@@H]1CC[C@]2(O)[C@@]1(C)CC[C@H](O)C(C)(C)[C@@H]1[C@H](O)C3 [compound 1, geliboluol A] | > 30 | > 30 | > 30 | > 30 | > 30 | > 30 | > 30 | > 30 | > 30 | > 30 | > 30 | > 30 | > 30 | > 30 | > 30 | – | – |
| COc1cccc2c1C(=O)c1c(O)c3c(c(O)c1C2=O)C[C@@](O)(C(=O)CO)C[C@@H]3O[C@H]1C[C@H](N)[C@H](O)[C@H](C)O1 [Doxorubicin, reference compound] | 0.007 | 0.012 | 0.035 | 0.014 | 0.106 | 0.245 | 0.094 | 0.305 | 0.221 | 0.314 | 0.112 | 0.21 | 0.008 | 0.029 | 0.222 | – | – |
